Here are results for 60 compounds from the METLIN SMRT retention time set (Domingo-Almenara et al. 2019).

A short description of the data set: gradient 5% acetonitrile 3 min, to 50% in 2 min, to 85% in 15 min, held 3 min, 100 µL/min. The conditions noted are these: column: Zorbax Extend-C18 2.1 x 50 mm; eluents: water / acetonitrile, 0.1% formic acid. In a few lines: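 The system's dead and dwell volumes were 40 μL and 900 μL, with a Zorbax Extend-C18 column (2.1 × 50 mm, 1.8 μm) run at 100 μL/min in water and acetonitrile containing 0.1% formic acid each. Pure standards were analyzed in mixtures of ~100 molecules by HPLC–quadrupole time-of-flight mass spectrometry in positive and negative ionization mode. Retention time was assigned from computationally picked, manually inspected adduct peaks.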
Compound `COc1ccc(-c2nnc3ccc(SCC(=O)Nc4nc(C)cs4)nn23)cc1OC` returned an RP-LC retention time of 606 s.

Compound `CCc1ccc(S(=O)(=O)N2C[C@@H](F)C[C@H]2C(=O)N2CCCCC2)cc1` yielded an RP-LC retention time of 866 s.

For `CCn1ncc(Cl)c1C(=O)N1CCCC1c1cccc(F)c1` (stereo not given), the RP-LC retention time came to 922 s.

The compound `Cc1ccnc(N2CCC(C(=O)Nc3ccc(Br)cc3F)CC2)n1` displayed an RP-LC retention time of 811 s.

On to `Cc1noc(-c2cc(=O)n(CC(=O)Nc3ccc(N(C)C)cc3)c3ccccc23)n1`, for which the RP-LC retention time is 650 s.

For `O=C(NCc1ccccc1)c1ccc2c(c1)CCN2C(=O)C1CC1`, the RP-LC retention time was found to be 794 s.

On to `CN1C(=O)CSc2cnn(CC(=O)NC3CCCC3)c(=O)c21`, for which the RP-LC retention time worked out at 637 s.

On to `Cc1ccc(NC(=O)C2CC(=O)N(CCc3c[nH]c4ccc(F)cc34)C2)cc1C` (stereo not given), for which the RP-LC retention time came to 867 s.

Compound `CCCOc1ccc(NC(=O)c2cc(=O)c3ccc(C)cc3o2)c2cccnc12` had an RP-LC retention time of 686 s.

`COc1ccc(-c2cc3n(n2)CCCN(C(=O)c2cccnc2SC)C3)cc1` came in with an RP-LC retention time of 788 s.

Regarding `Cc1ccc(CNC(=O)C2(C)CCCN(C(=O)Nc3ccccc3C(F)(F)F)C2)cc1` (stereo not given), the RP-LC retention time came out at 1010 s.

Compound `CC(NC(=O)C1CCN(C(=O)c2ncn3c2COC(c2ccc(F)cc2)C3)CC1)c1ccc(F)cc1` (stereo not given) had an RP-LC retention time of 790 s.

Compound `Cc1ccccc1CNC(=O)C1CCCN(c2nnc(C)c3c(C)n(-c4ccccc4)nc23)C1` (stereo not given) gave an RP-LC retention time of 727 s.

`COc1ccc(-c2cc(N3CCC(NC(=O)c4ccc(F)cc4F)C3)n[nH]2)cc1` (stereo not given) gave an RP-LC retention time of 696 s.

For the compound `CCCNC(=O)C1CCCN(c2ccc(SCC(=O)Nc3cccc(F)c3)nn2)C1` (stereo not given), the RP-LC retention time is 670 s.

As for `O=C(NCC(O)c1ccsc1)Nc1cccs1` (stereo not given), the RP-LC retention time stood at 642 s.

Compound `O=C(COc1ccc(F)cc1)N1CC(n2cnnc2C2CC2)C1` had an RP-LC retention time of 627 s.

`COc1cccc(-c2nc3sc(C(=O)N4CCOCC4)c(C)n3c2NC(C)(C)C)c1` came in with an RP-LC retention time of 795 s.

`C[C@H]1CN(C(=O)c2cc(Cl)ccc2F)C[C@@H]1c1nc(-c2ccncc2)no1`: the RP-LC retention time is 857 s.

Compound `N[C@@H](CC(=O)N1CCn2c(nnc2C(F)(F)F)C1)Cc1cc(F)c(F)cc1F` displayed an RP-LC retention time of 675 s.

With `CCOC(=O)C1=C(CN2CCC(c3ccccc3)C2)NC(=O)NC1c1ccc(F)cc1` (stereo not given), the RP-LC retention time came to 687 s.

As for `Cc1noc(C)c1CCNC(=O)c1cn2ccccc2n1`, the RP-LC retention time amounted to 593 s.

`CC(C)OCCCNC(=O)CCc1nnc2c3cc(-c4ccccc4)nn3ccn12` displayed an RP-LC retention time of 690 s.

With `Cc1cc(C)n(-c2ccc(C(=O)NC3CCCC3)cn2)n1`, the RP-LC retention time worked out at 885 s.

Take `Cn1c(=O)c(N2CCC(NC(=O)Nc3ccc(Br)cc3)CC2)nc2ccccc21`: the RP-LC retention time worked out at 977 s.

On to `C[C@H]1CN(C(=O)Cc2ccccc2F)C[C@@H]1c1nc(-c2ccccc2)no1`, for which the RP-LC retention time came out at 1020 s.

Take `O=C(Nc1ncc(-c2ccccc2)s1)c1ccccc1Br`: the RP-LC retention time amounted to 936 s.

`CCCOc1nc2ccccc2nc1N1CCCC(C(=O)NC2CCCC2)C1` (stereo not given) displayed an RP-LC retention time of 1180 s.

The compound `O=C(COc1ccccc1)N1CCC(OCc2nc(C3CC3)no2)CC1` came in with an RP-LC retention time of 817 s.

Compound `Cc1ccc(NC(=O)CN2CCC(c3nc(-c4cccs4)no3)CC2)c(Cl)c1` yielded an RP-LC retention time of 777 s.

Regarding `C=CCNCc1ccc(-c2cccc(C(F)(F)F)c2)o1`, the RP-LC retention time came out at 714 s.

`CCOc1ccc(NC(=O)C2CC(=O)N(CCc3c[nH]c4ccc(F)cc34)C2)cc1` (stereo not given) returned an RP-LC retention time of 811 s.

`Cc1ccc2ncn(C3CCN(S(=O)(=O)c4ccc(F)cc4)CC3)c(=O)c2c1`: the RP-LC retention time turned out to be 896 s.

For `CCn1cc(-c2ccnc3[nH]c(-c4cccc(CN(C)C)c4)cc23)c(-c2ccc(NC(=O)N(C)C)cc2)n1`, the RP-LC retention time worked out at 632 s.

`CCOc1ccc2ncc(S(=O)(=O)c3ccccc3)c(N3CCN(C)CC3)c2c1` showed an RP-LC retention time of 787 s.

`CCCCn1c(CN2CCOCC2)nc2cc(NC(=O)CC(C)C)ccc21` registered an RP-LC retention time of 665 s.

The compound `O=C(c1ccc(F)c(Cl)c1)N(CC1CCOC1)C1CC1` (stereo not given) displayed an RP-LC retention time of 824 s.

`CC(C)N1C(=O)C(C)(C(=O)Nc2ccc(F)c(F)c2)Oc2cccnc21` (stereo not given) yielded an RP-LC retention time of 1030 s.

As to `COc1cccc(Nc2c(-c3ccc(Br)cc3)nc3cnccn23)c1`, the RP-LC retention time amounted to 972 s.

`O=C(NCCC1CCN(C(=O)Nc2ccc(F)cc2)CC1)c1ccoc1` registered an RP-LC retention time of 716 s.

For `COc1ccc(C2(C)NC(=O)N(CC(=O)Nc3ccc([N+](=O)[O-])cc3)C2=O)cc1` (stereo not given), the RP-LC retention time is 727 s.

Consider `COc1ccc(S(=O)(=O)N2CCCC(C(=O)Nc3ccc4c(c3)OCCO4)C2)cc1C` (stereo not given), for which the RP-LC retention time is 958 s.

The compound `O=C(Nc1cnc(N2CCCCCC2)nc1)c1ccc(Br)o1` displayed an RP-LC retention time of 952 s.

As for `Cc1cccc2nnc(N3CCN(C(=O)c4cccc(Cl)c4)CC3)n12`, the RP-LC retention time is 584 s.

For `CCn1cc(-c2ccc(OC)cc2)cc1C(=O)NCCN1CCN(C)CC1`, the RP-LC retention time was 623 s.

`Cn1cc(C(=O)NCCc2cccs2)c(S(=O)(=O)N2CCSCC2)n1` registered an RP-LC retention time of 842 s.

Take `CCC(CC)C(=O)N1CCC(N2CCN(Cc3ccc(C)cc3)C(=O)C2=O)CC1`: the RP-LC retention time was 756 s.

In the case of `CCOc1ccccc1CNc1nccc(-n2nc(C)cc2C)n1`, the RP-LC retention time was found to be 894 s.

In turn, `CCCCN1C(=O)C(NC(=O)c2ccccc2OC)(C(F)(F)F)C2=C1CC(C)(C)CC2=O` (stereo not given) registered an RP-LC retention time of 1080 s.

The compound `Cc1ccc(NC(=O)Cn2nc(C(=O)N3CCCCC3)c3ccccc32)c(Br)c1` came in with an RP-LC retention time of 973 s.

In the case of `O=C(Nc1c(C(=O)N2CCN(c3ccccn3)CC2)oc2ccccc12)c1ccc([N+](=O)[O-])cc1`, the RP-LC retention time was determined as 757 s.

On to `Cc1cccc(C)c1NC(=O)Cn1nc2n(c1=O)CCCC2`, for which the RP-LC retention time is 632 s.

Compound `Cc1ncc2c(n1)C[C@@H]1CC[C@H]2N1C(=O)c1ccccn1` had an RP-LC retention time of 603 s.

For the compound `Cc1nc(N2CCOCC2)c2c(C(=O)Nc3ccccc3)c(C)oc2n1`, the RP-LC retention time stood at 778 s.

`Cc1nn(Cc2nc(-c3ccc(NC(=O)C4CCCCC4)cc3)oc2C)c(C)c1C`: the RP-LC retention time was found to be 1020 s.

Compound `CCn1c(=O)c(SCC(=O)NCC2CCN(Cc3ccc(C)cc3)C2)nc2ccccc21` (stereo not given) came in with an RP-LC retention time of 668 s.

Consider `Nc1cc(C2CCN(C(=O)Nc3ccccc3Br)CC2)no1`, for which the RP-LC retention time was determined as 706 s.

As to `CCOc1cc(C(=O)N2CCN(c3c(C)n(C)c(=O)n(C)c3=O)CC2)cc(OCC)c1OCC`, the RP-LC retention time was 810 s.

As to `CNS(=O)(=O)CCCOc1cccc2c1OC(C)(C)C2`, the RP-LC retention time was found to be 776 s.

Regarding `CC(C)NC(=O)c1ccc2c(c1)CCCN2S(=O)(=O)c1ccccc1`, the RP-LC retention time turned out to be 878 s.
